# Experimental data: the supplement of paper PMC10307832
# Experiments:
# Experiment in all cases: relative viability (nuclei count vs DMSO), 5 days (fraction); higher = more cells survive
# [1] = compound: C1=CC=C2C(=C1)C=CC(=C2SSC3=C(C=CC4=CC=CC=C43)O)O [IPA-3] + CCNC(=O)c1noc(-c2cc(C(C)C)c(O)cc2O)c1-c1ccc(CN2CCOCC2)cc1 [Luminespib] (partner 0.01 µM)
# How it was run: (§1)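 Lung cancer cell lines in 1536-well plates were dosed by pin tool the day after seeding, either with one drug alone or with a fixed anchor-drug dose plus five library-drug doses (not always all listed) in √10 steps. After 5 days, cells were fixed and their nuclei stained in one step (final 0.05% Triton X-100, 1% formaldehyde, 1 ug/ml Hoechst), then counted on 4× images. Relative viability is the nuclei count in treated wells divided by that in vehicle wells. Values are medians of duplicate plates.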
# [2] = compound: Cc1ccc(-n2nc(C(C)(C)C)cc2NC(=O)Nc2ccc(OCCN3CCOCC3)c3ccccc23)cc1 [Doramapimod] + Nc1ncn([C@H]2C[C@H](O)[C@@H](CO)O2)c(=O)n1 [Decitabine] (partner 2 µM)
# How it was run: as §1
# [3] = compound: Cn1c(Nc2ccc(C(F)(F)F)cc2)nc2cc(Oc3ccnc(-c4ncc(C(F)(F)F)[nH]4)c3)ccc21 [RAF265] + CC(C)C[C@H](NC(=O)[C@H](Cc1ccccc1)NC(=O)c1cnccn1)B(O)O [Bortezomib] (partner 0.002 µM)
# How it was run: as §1
# [4] = compound: Cc1ccc(-n2nc(C(C)(C)C)cc2NC(=O)Nc2ccc(OCCN3CCOCC3)c3ccccc23)cc1 [Doramapimod] + O=C(CCCCCCC(=O)Nc1ccccc1)NO [Vorinostat] (partner 1 µM)
# How it was run: as §1
Cell Line,relative viability ([1]; first compound 0.2 µM),relative viability ([1]; first compound 0.6325 µM),relative viability ([1]; first compound 2 µM),relative viability ([1]; first compound 6.325 µM),relative viability ([1]; first compound 20 µM),relative viability ([2]; first compound 0.02 µM),relative viability ([2]; first compound 0.06325 µM),relative viability ([2]; first compound 0.2 µM),relative viability ([2]; first compound 0.6325 µM),relative viability ([2]; first compound 2 µM),relative viability ([3]; first compound 0.01 µM),relative viability ([3]; first compound 0.03162 µM),relative viability ([3]; first compound 0.1 µM),relative viability ([3]; first compound 0.3162 µM),relative viability ([3]; first compound 1 µM),relative viability ([4]; first compound 0.02 µM),relative viability ([4]; first compound 0.06325 µM),relative viability ([4]; first compound 0.2 µM),relative viability ([4]; first compound 0.6325 µM),relative viability ([4]; first compound 2 µM)
LCLC-103H,1.09,1,0.916,0.929,0.926,0.714,0.704,0.719,0.742,0.654,1.02,1.07,0.994,1,0.627,0.788,0.799,0.875,0.845,0.751
LOU-NH91,0.326,0.26,0.332,0.33,0.358,0.858,0.806,0.84,0.849,0.711,0.542,0.465,0.521,0.596,0.521,0.966,0.944,0.945,0.847,0.632
LU99A,0.295,0.179,0.292,0.206,0.214,0.905,0.948,0.754,0.97,0.759,1.18,1.11,0.697,0.605,0.409,0.443,0.455,0.578,0.53,0.474
LXF-289,0.844,0.648,0.646,0.814,0.691,0.374,0.393,0.354,0.373,0.351,0.996,0.988,0.969,0.763,0.796,0.811,0.775,0.747,0.723,0.635
NCI-H23,0.221,0.224,0.201,0.227,0.204,0.359,0.288,0.358,0.329,0.265,1.21,0.937,0.606,0.621,0.353,0.633,0.563,0.554,0.656,0.473
NCI-H322M,0.964,0.722,1.08,1.02,1.13,0.722,0.671,0.736,0.785,0.706,1.3,1.32,1.14,0.55,0.258,0.889,0.943,0.979,0.998,0.94
NCI-H441,0.401,0.29,0.407,0.324,0.422,0.238,0.216,0.268,0.238,0.194,0.446,,0.499,0.362,0.207,0.72,0.851,0.591,0.798,0.644
NCI-H460,0.0346,0.0286,0.0329,0.0351,0.0331,0.499,0.434,0.487,0.553,0.46,1.15,1.22,1.09,,0.742,0.773,0.817,0.76,0.794,0.551
